According to ChEMBL document CHEMBL1201862, “PubChem BioAssay data set” (2004):
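Protocol summary: plate cells (96-well), add compound at 5 concentrations, incubate 48 h, interpolate endpoints linearly. The concentration for 50% growth inhibition is given as GI50.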 Calls of active or inactive are those of the source. Cut-off read from the data, not from the text of the source: active = GI50 up to about 1.1 µM and inactive = higher.

Legend:
Experiment in all cases: NCI tumour cell line growth inhibition, 48 h
NCI-H522 = system: NCI-H522
SR = system: SR
SNB-75 = system: SNB-75
SW-620 = system: SW-620
A549 = system: A549
HCC 2998 = system: HCC 2998
NCI-H460 = system: NCI-H460
LOX IMVI = system: LOX IMVI
KM12 = system: KM12
OVCAR-3 = system: OVCAR-3
NCI/ADR-RES = system: NCI/ADR-RES
SF-268 = system: SF-268
UO-31 = system: UO-31
K562 = system: K562
SK-OV-3 = system: SK-OV-3
SF-295 = system: SF-295
RXF 393 = system: RXF 393
OVCAR-8 = system: OVCAR-8
ACHN = system: ACHN
SNB-19 = system: SNB-19

Row | SMILES | GI50 (NCI-H522) | GI50 (SR) | GI50 (SNB-75) | GI50 (SW-620) | GI50 (A549) | GI50 (HCC 2998) | GI50 (NCI-H460) | GI50 (LOX IMVI) | GI50 (KM12) | GI50 (OVCAR-3) | GI50 (NCI/ADR-RES) | GI50 (SF-268) | GI50 (UO-31) | GI50 (K562) | GI50 (SK-OV-3) | GI50 (SF-295) | GI50 (RXF 393) | GI50 (OVCAR-8) | GI50 (ACHN) | GI50 (SNB-19)
1 | O=c1oc2ccccc2c(Nc2ccc3c(c2)Oc2ccccc2O3)c1[N+](=O)[O-] | 24.1 µM (inactive) | 38.3 µM (inactive) | 14.7 µM (inactive) | 22.7 µM (inactive) | 32.4 µM (inactive) | 28.1 µM (inactive) | 42.2 µM (inactive) | 36.9 µM (inactive) | 59.2 µM (inactive) | 24.6 µM (inactive) | 27.9 µM (inactive) | 23.7 µM (inactive) | > 100 µM (inactive) | 51.8 µM (inactive) | 19.1 µM (inactive) | 18 µM (inactive) | 17.5 µM (inactive) | 18.8 µM (inactive) | 16.3 µM (inactive) | 17.5 µM (inactive)
2 | Cc1cc(C)c2c(=O)n(CN3CCC(O)(c4ccccc4)CC3)sc2n1 | 11.8 µM (inactive) | 29.9 µM (inactive) | 19.2 µM (inactive) | 26.8 µM (inactive) | > 100 µM (inactive) | 27.4 µM (inactive) | 29 µM (inactive) | 31.1 µM (inactive) | > 100 µM (inactive) | 38.4 µM (inactive) | 53.1 µM (inactive) | 31.1 µM (inactive) | 17.2 µM (inactive) | 24 µM (inactive) | > 100 µM (inactive) | > 100 µM (inactive) | 19.8 µM (inactive) | 30.1 µM (inactive) | 19.4 µM (inactive) | > 100 µM (inactive)
3 | Nc1nc2[nH]cnc2c(=S)[nH]1 [THIOGUANINE] | 0.895 µM (active) | 0.182 µM (active) | 1.48 µM (inactive) | 1.45 µM (inactive) | 3.63 µM (inactive) | 0.957 µM (active) | 0.624 µM (active) | 0.207 µM (active) | 1.71 µM (inactive) | 0.767 µM (active) | 0.671 µM (active) | 1.09 µM (active) | 1.56 µM (inactive) | 0.385 µM (active) | 0.548 µM (active) | 1.08 µM (active) | 0.865 µM (active) | 0.687 µM (active) | 1.86 µM (inactive) | 76.9 µM (inactive)
4 | N#Cc1c(C#N)c(SSc2c(C#N)c(C#N)c(N)n2-c2cccc3ccccc23)n(-c2cccc3ccccc23)c1N | 1.5 µM (inactive) | 2.34 µM (inactive) | 5.62 µM (inactive) | 2.56 µM (inactive) | 19.9 µM (inactive) | 20.1 µM (inactive) | 46.8 µM (inactive) | 7.94 µM (inactive) | 41.6 µM (inactive) | 1.84 µM (inactive) | 25.1 µM (inactive) | 14.4 µM (inactive) | 2.34 µM (inactive) | 3.51 µM (inactive) | 24.1 µM (inactive) | 19.9 µM (inactive) | 6.08 µM (inactive) | 4.36 µM (inactive) | 5.15 µM (inactive) | 20.9 µM (inactive)
5 | Nc1nncs1 | 1210 µM (inactive) | 2000 µM (inactive) | 1440 µM (inactive) | 1260 µM (inactive) | 942 µM (inactive) | 2160 µM (inactive) | 692 µM (inactive) | 1450 µM (inactive) | 1940 µM (inactive) | 2400 µM (inactive) | 1510 µM (inactive) | 3950 µM (inactive) | 3530 µM (inactive) | 1320 µM (inactive) | 151 µM (inactive) | 2760 µM (inactive) | 2930 µM (inactive) | 1910 µM (inactive) | 1520 µM (inactive) | 3730 µM (inactive)
6 | COc1cc(OC)c(/C=C\c2cc(/C=C/c3c(OC)cc(OC)cc3OC)c3ccccc3[n+]2C)c(OC)c1 | 1.96 µM (inactive) | 2.24 µM (inactive) | 2.77 µM (inactive) | 2.39 µM (inactive) | 3.94 µM (inactive) | 3.48 µM (inactive) | 2.21 µM (inactive) | 4.07 µM (inactive) | 2.98 µM (inactive) | 2.33 µM (inactive) | > 100 µM (inactive) | 2.52 µM (inactive) | 7.16 µM (inactive) | 1.64 µM (inactive) | 4.69 µM (inactive) | 2.31 µM (inactive) | 3.41 µM (inactive) | 1.94 µM (inactive) | 4.59 µM (inactive) | 8.47 µM (inactive)
7 | CC(NC(=O)OC(C)(C)C)C(=O)NC1CCCC1 (stereo not given) | > 100 µM (inactive) | > 100 µM (inactive) | > 100 µM (inactive) | > 100 µM (inactive) | > 100 µM (inactive) | > 100 µM (inactive) | > 100 µM (inactive) | > 100 µM (inactive) | > 100 µM (inactive) | > 100 µM (inactive) | > 100 µM (inactive) | > 100 µM (inactive) | > 100 µM (inactive) | > 100 µM (inactive) | > 100 µM (inactive) | > 100 µM (inactive) | > 100 µM (inactive) | > 100 µM (inactive) | > 100 µM (inactive) | > 100 µM (inactive)
